Assay results reported in patent publication US9320723B2, “Methods of treating thyroid eye disease” (University of Rochester, priority 2010, dated 2016).

What was measured:
HMC-1 cells = test: Measurement of PGD2 produced by mast cells (PGD2-MOX EIA); type: cell-based, human; settings: HQL-79 100 μM 60 minutes, then A23187
Description: HMC-1 cells (1×10^6/well) were seeded into 6-well plates and cultured in IMDM medium with 5% FBS in the absence or presence of HQL-79 (H-PGDS inhibitor, 100 μM) at 37° C. for 60 minutes. The cells were then washed and resuspended in RPMI 1640 medium with 0.5% FBS. After 2 hours incubation, the cells were stimulated with 10 μM calcium ionophore A23187 for 30 minutes. The culture media were collected and PGD2 in the supernatants was quantified by PGD2-MOX EIA kits (Cayman Chemical).

[1] = tested on: orbital fibroblasts co-cultured with HMC-1 cells; test: Co-culture of HMC-1 mast cells with orbital fibroblasts, HA ELISA; type: cell-based, human; settings: HMC-1 cells pretreated with HQL-79, ratio 20:1, compared to vehicle
Description: HMC-1 mast cells were allowed to proliferate in Iscove's Modified Dulbecco's Medium (IMDM) enriched with 5% FBS. Co-cultures were initiated by introducing HMC-1 cells to confluent cultures of fibroblasts as previously described (24). Mast cells were washed with RPMI-1640 medium (0.5% FBS) once before addition to the fibroblasts (1:1 ratio, unless otherwise specified). After 4 hours, the media and HMC-1 cells were removed by gently rinsing in PBS and fresh RPMI-1640 medium (0.5% FBS) was used to cover the cells. Alternatively, fibroblasts and mast cells were co-cultured in a transwell system (0.4 μm; Greiner Bio-one, New York, N.Y.) with fibroblasts being cultured on the bottom and the mast cells in the top chamber. The ratio of mast cells to fibroblasts was varied from 5:1 to 20:1.
Aliquots of culture medium were removed at indicated time points, centrifuged (5 min, 8,000×g at 4° C.) and HA levels quantified by enzyme-linked immunosorbent assay (ELISA) according to the manufacturer's protocol (R&D Systems). Briefly, samples were incubated in HA-binding protein (HABP)-coated microwells, allowing HA in samples to react with the immobilized HABP. […] After the last wash, the chromogenic substrate was added and HA levels were determined using a Varioskan Flash plate reader (Thermo Fisher Scientific, Milford, Mass.).

[2] = tested on: human orbital fibroblasts (OF1 and OF2); test: Agarose gel electrophoresis of HA in conditioned media; type: cell-based; settings: 5 μM PGD2, 18 hours
Description: Fibroblasts were cultured to confluence in 10 cm^2 dishes in RPMI containing 10% FBS, followed by RPMI with 2% FBS for 3 days. Fibroblasts were then treated with 5 μM PGD2 or control (DMSO) for 18 hours. Cell culture supernatant was centrifuged (5 min at 8,000×g at 4° C.) and half of the sample digested with 1 TRU/ml Streptomyces hyaluronidase (Sigma) at 37° C. for 4 hours; the remainder of the sample was mock-digested. Following digestion with proteinase K (120 μg/ml) (Qiagen, Valencia, Calif.) at 37° C. for 4 hours, the samples were concentrated using Vivaspin 10,000 Da cut-off ultrafiltration spin column (Sartorius Stedim Biotech, Goettingen, Germany), washed with PBS and analyzed by 1% agarose electrophoresis. Select-HA HiLadder (Hyalose LLC, Oklahoma City, Okla.) and blue dextran (Sigma; molecular weight 2×10^6 Da) were also run as standards. The gel was stained with 0.005% Stains-All (Sigma) in 50% ethanol overnight at room temperature before being scanned on an HP scanner.

[3] = tested on: human orbital fibroblasts; test: HA ELISA of culture medium of orbital fibroblasts treated with prostaglandins or drugs; type: cell-based; settings: 18 hours, strains OF1 and OF2
Text: Orbital fibroblasts: Primary orbital fibroblasts were isolated from TED patients undergoing orbital decompression surgery. The protocols for orbital biopsy and blood sample, described below, were approved by the Internal Review Board and informed, written consent was obtained from all patients. […] Fibroblasts were characterized by their adherent morphology, expression of vimentin and types I and III collagen and absence of CD45, factor VIII or cytokeratin. Fibroblasts were used at the earliest passage possible (between passages 4 to 10). Human T cells: Lymphocytes were isolated from 60 ml of peripheral blood obtained during orbital decompression surgery. Whole blood was separated over a Ficoll-Paque Plus Gradient (Amersham Biosciences, Piscataway, N.J.) to obtain peripheral blood mononuclear cells. T cells were enriched using CD3/CD28 T cell Expander beads (Invitogen). […] After that, 50 U/ml of recombinant interleukin-2 (rIL-2) was added to the culture and incubated for another 2-3 days. On day 5, cells were diluted to a concentration of 0.5×10^6 cells/ml in medium containing 50 U/ml rIL-2 and incubated for an additional 3-7 days. Cellular purity was assessed using an anti-CD3-PE antibody (BD Biosciences, San Jose, Calif.) and analyzed on a FACSCalibur flow cytometer (BD Biosciences).
Aliquots of culture medium were removed at indicated time points, centrifuged (5 min, 8,000×g at 4° C.) and HA levels quantified by enzyme-linked immunosorbent assay (ELISA) according to the manufacturer's protocol (R&D Systems). Briefly, samples were incubated in HA-binding protein (HABP)-coated microwells, allowing HA in samples to react with the immobilized HABP. After the removal of unbound molecules by washing, biotinylated-HABP was added to the microwells. Following a second wash, streptavidin-conjugated to horseradish peroxidase was added. After the last wash, the chromogenic substrate was added and HA levels were determined using a Varioskan Flash plate reader (Thermo Fisher Scientific, Milford, Mass.).

[4] = tested on: human orbital fibroblasts; settings: previously reported (Feldon et al. 2006); cited from earlier work
orbital fibroblasts [5] = test: Measurement of intracellular cAMP (TR-FRET immunoassay); type: cell-based, human; settings: PGD2 5 μM, BW245C 10 μM, up to 60 minutes
Description: cAMP levels were quantified using a time-resolved fluorescence resonance energy transfer (TR-FRET) immunoassay from Perkin Elmer (Waltham, Mass.) according to the manufacturer's protocol. Briefly, orbital fibroblasts were detached with a non-enzymatic cell dissociation solution (Versene, Invitrogen) and re-suspended in Stimulation Buffer (pH 7.4; 1×HBSS buffer containing 5 mmol/L HEPES buffer and 0.01%-0.1% BSA) containing 0.5 mM IBMX and labeled with the Alexa Fluor® 647-labeled anti-cAMP antibody. Finally, the cells were incubated with drugs at the indicated times. Following addition of the detection buffer, the amount of cAMP signal was measured.

[6] = tested on: human orbital fibroblasts; test: qRT-PCR of HAS mRNA after PGD2 or BW245C; type: cell-based; settings: 5 μM PGD2, 2 hours
Description: (§1) RNA was isolated from orbital fibroblasts or T cells using an RNeasy Mini kit (Qiagen). RNA was reverse transcribed to cDNA using iScript cDNA synthesis kit (Bio-Rad) and diluted 5-fold in RNase-free H2O. Forward and reverse primers for each gene are shown in Table I. RT-PCR: The PCR reaction was performed using Qiagen Fast Cycling PCR kit for 30 cycles in a Bio-Rad thermal cycler. The PCR product was visualized on a 5% acrylamide gel stained with ethidium bromide. Amplifications without reverse transcriptase were carried out as negative controls. qRT-PCR: qRT-PCR was performed in a Bio-Rad iCycler containing B-R SYBR Green SuperMix for IQ (Quanta Biosciences, Gaithersburg, Md.). Efficiency of the amplification was determined to be >90%.
(§2) Amplification of 7S ribosomal RNA was carried out for each cDNA (in triplicate) for normalization. Threshold cycle number (Ct) of amplification in each sample was determined by Bio-Rad software and the relative mRNA abundance was calculated as the Ct for amplification of a gene-specific cDNA minus average Ct for 7S, expressed as a power of 2; i.e., 2^ΔCt.

[7] = tested on: orbital fibroblast strains OF1 and OF2; test: qRT-PCR of hyaluronidase mRNA (HYAL1-3); type: cell-based, human; settings: 5 μM PGD2, 4 hours
Description: as §1, §2

orbital fibroblasts [8] = test: Immunofluorescence staining of HA with biotinylated HABP; type: cell-based, human; settings: 2 ng/ml TGF-β1, 24 hours
Description: Orbital fibroblasts were cultured in 8-chamber slides (BD REF354108) and fixed in room temperature 3% paraformaldehyde in PBS and stained with 1 μg/ml biotinylated HABP (Seikagaku, Cape Cod) followed by Cy3-conjugated streptavidin (Jackson laboratories, West Grove, Pa.). F-actin was stained with Phalloidin (Molecular Probes). In some cultures, orbital fibroblasts were treated with Streptomyces hyaluronidase prior to staining T cells were stained with an anti-CD3 monoclonal antibody (clone UCHT, SouthernBiotech, Birmingham, Ala.) followed by a goat anti-mouse antibody labeled with Alexa-488 (Molecular Probes). DAPI (10 μg/ml, Anaspec, San Jose, Calif.) was used for nuclear staining.

[9] = tested on: human orbital fibroblasts; test: qRT-PCR of HAS mRNA after TGF-β1 with or without Pio or Rosi; type: cell-based; settings: 2 ng/ml TGF-β1, 6 hours
Text: RNA was isolated from orbital fibroblast strains using the RNeasy Mini kit according to the manufacturer's protocol (Qiagen, Valencia, Calif.) and reverse transcripted to cDNA using iScript cDNA synthesis kit (Bio-Rad, Hercules, Calif.). Primers for human HAS1, 2, 3 and 7S as well as qRT-PCR method to detect relative abundance of mRNA are identified supra. Primers for human PPARγ1 (NM138711) and PPARγ 2 (NM015869) mRNA were 5′-AAAGAAGCCGA-CACTAAACC-3′ (SEQ ID NO:3) (sense), 5′-CTTCCATTACGG-AGAGATCC-3′ (SEQ ID NO:4) (antisense) and, 5′-GCGATTC-CTTCACTGATAC-3′ (SEQ ID NO:5) (sense), 5′-CTTCCATT-ACGGAGAGATCC-3′ (SEQ ID NO:6) (antisense), respectively.

[10] = tested on: human orbital fibroblasts; test: Quantitation of secreted, pericellular and intracellular HA by ELISA, TGF-β1 treatment; type: cell-based
Description: Confluent monolayers of orbital fibroblasts were serum starved in 0.5% FBS RPMI-1640 medium for three days and pretreated with different concentrations of Pio or Rosi for 1 hour and then treated with or without 2 ng/ml TGF-β1 for 24 hours. After treatments, an aliquot of culture medium (secreted HA) was removed and centrifuged at 8,000×g at 4° C. for 5 minutes and the supernatant was saved for later analysis. The cells were washed twice with PBS and treated with 0.25% trypsin-EDTA solution (GIBCO, Invitrogen) at 37° C. for 5 minutes, the reaction was stopped by addition of culture medium and cell number was determined using a hemocytometer. The cells were then centrifuged and the supernatant was collected and incubated at 100° C. for 10 minutes to inactivate trypsin activity. This supernatant was saved for pericellular HA detection. The cell pellet was washed with PBS once and digested with 120 μg/ml proteinase K in 0.1% SDS/0.1 M Tris-HCl (pH 7.6) at 37° C. for 1 hour, and proteinase K was inactivated by incubation at 100° C. for 10 min. The cell lysate was centrifuged and supernatant analyzed for intracellular HA.
The amount of HA in each extract (secreted HA, pericellular HA and intracellular HA) was measured by ELISA based on the specific interaction of HA with HA binding protein (HABP). The HA detection kit was purchased from R&D system (Minneapolis, Minn.). Briefly, diluted samples were incubated in HABP-coated microwells, allowing HA present in samples to react with the immobilized HABP. After extensive washing, biotinylated HABP was added to the microwells to form complexes with bound HA. Following another round of washing, streptavidin conjugated horseradish peroxidase was added. After a brief incubation period and washing, chromogenic substrate was added and HA levels were determined using a Varioskan Flash plate reader (Thermo Fisher Scientific, Milford, Mass.). A fraction of the samples were pretreated with Streptomyces hyaluronidase (2 U/ml at 37° C. for 2 hour) before subjected to the ELISA assay as a negative control. Furthermore, an additional 50 ng/ml (final concentration) of free soluble HA was added to a fraction of the cell lysate samples to confirm that there are no inhibitory factors present and that the assays show the expected additivity when a known amount of exogenous HA is included.

[11] = tested on: human peripheral blood T cells adhering to orbital fibroblasts; test: T cell adhesion assay; type: cell-based; settings: fibroblasts treated with 2 ng/ml TGF-β1, 24 hours
Description: Confluent orbital fibroblasts in a 96-well plate were serum starved and incubated with different concentrations of Pio or Rosi treated with or without 2 ng/ml TGF1 for 24 hours. In some cultures, orbital fibroblasts were treated with Streptomyces hyaluronidase (100 mU/ml at 37° C. for 1 hour) prior to the adhesion assay to deplete endogenous HA. Adhesion Test. Immediately before the adhesion assay, the conditioned medium of orbital fibroblasts was removed to eliminate treatments and secreted ECM. 1×10^5/well of Calcein AM labeled T cells were added to a 96-well plate with a confluent orbital fibroblast monolayer and allowed to adhere for 90 min at 4° C. as previously described. Plates were washed three times with the addition of 200 ul of PBS followed by plate inversion and gentle tapping to remove the wash solution. Fluorescence was measured with an excitation of 485 nm and detection of 535 nm, in a Varioskan Flash plate reader (Thermo Electron Corporation).

[12] = 2 ng/ml TGF-β1, 24 hours, strain #1, compared to vehicle

Molecule: c1ccc(C(OC2CCN(CCCc3nnn[nH]3)CC2)c2ccccc2)cc1 [HQL-79, 4-benzhydryloxy-1-[3-(1H-tetrazol-5-yl)-propyl]-piperidine]
- level of PGD2 in activated HMC-1 cells (HMC-1 cells): significantly reduced the level of PGD2 in activated HMC-1 cells
- production of HA by orbital fibroblasts in transwell co-culture [1]: significantly attenuated the production of HA by orbital fibroblasts

Molecule: CCCCC[C@H](O)/C=C/[C@H]1C(=O)C[C@H](O)[C@@H]1C/C=C\CCCC(=O)O [PGD2]
- HA in conditioned media (agarose gel) [2]: increased HA compared with vehicle
- concentration yielding the largest induction of HA [3]: 5 µM
- HA synthesis (HA ELISA) ([3]; increasing concentrations): significantly increased HA synthesis by both fibroblast strains in a dose-dependant manner
- adipogenesis in human orbital fibroblasts [4]: induce adipogenesis
- intracellular cAMP production (orbital fibroblasts [5]): significantly increased intracellular cAMP production within 15 to 30 minutes
- HAS1, HAS2 and HAS3 mRNA [6]: the mRNA for all three HAS isoforms increased significantly
- increase in HAS1 mRNA ([6]; compared to time 0): 2807±213
- HYAL1, HYAL2 and HYAL3 mRNA ([7]; strain OF1): significant induction in HYAL1, HYAL2 and HYAL3 mRNA
- hyaluronidase mRNA expression ([7]; strain OF2): failed to significantly increase hyaluronidase mRNA expression

Molecule: TGF-β1: Recombinant human TGF-β1 purchased from Calbiochem
- HA staining (immunofluorescence) (orbital fibroblasts [8]): HA staining is more pronounced and forms microvillus-like protrusions
- HAS3 mRNA levels [9]: remained unchanged
- increase of HAS1 mRNA levels [9]: about 50 fold
- increase of HAS2 mRNA levels [9]: ~6 fold
- intracellular HA levels ([10]; 2 ng/ml TGF-β1, 24 hours): had no effect on intracellular HA levels
- increase of pericellular HA levels [10, 12]: 8.34±1.33 fold
- increase of secreted HA levels [10, 12]: 12.16±0.15 fold
- share of newly synthesized HA secreted into the ECM ([10]; TGF-β1 mediated): about 70%
- secreted HA compared with pericellular HA ([10]; fibroblasts treated with TGF-β1, strain #1): 2.31±0.36 fold
- adhesion of T cells to orbital fibroblasts [11]: significantly increased compared to untreated control fibroblasts
